Results reported in patent US9115127B2 (AMGEN INC., priority 2010, dated 2015).
Counter-ions that a name gives are not always drawn.

molecular target: T1, wild-type human ALK (cytoplasmic domain, amino acids 1058-1620, N-terminal GST fusion) (Homo sapiens, UniProt Q9UM73); test: ALK Inhibition in Enzyme Assay (Lance TR-FRET kinase assay); format: biochemical
T1 construct: The cytoplasmic domain (amino acids 1058-1620) of wild-type human ALK; GST (N); made in house; host or cells: SF9 insect cells
Experimental: ALK Inhibition in Enzyme Assay
Kinase activity of the purified protein was assessed using a Lance® TR-FRET assay. […] The reaction was allowed to proceed for 90 minutes at room temperature and was then terminated with 20 mM EDTA in 50 mM Tris (pH 7.5), 100 mM NaCl, 0.05% BSA, and 0.1% Tween-20. Phosphorylation of the peptide substrate was detected using the Lance® detection reagents streptavidin-allophycocyanin (SA-APC) and Eu-W1024 anti-phosphotyrosine antibody (PT66) from Perkin Elmer Life Sciences (Waltham, Mass.). The plates were read on a RUBY star plate reader (BMG LABTECH, Cary, N.C.) with an excitation wavelength of 320 nm.

T1 sequence (Q9UM73 1058-1620): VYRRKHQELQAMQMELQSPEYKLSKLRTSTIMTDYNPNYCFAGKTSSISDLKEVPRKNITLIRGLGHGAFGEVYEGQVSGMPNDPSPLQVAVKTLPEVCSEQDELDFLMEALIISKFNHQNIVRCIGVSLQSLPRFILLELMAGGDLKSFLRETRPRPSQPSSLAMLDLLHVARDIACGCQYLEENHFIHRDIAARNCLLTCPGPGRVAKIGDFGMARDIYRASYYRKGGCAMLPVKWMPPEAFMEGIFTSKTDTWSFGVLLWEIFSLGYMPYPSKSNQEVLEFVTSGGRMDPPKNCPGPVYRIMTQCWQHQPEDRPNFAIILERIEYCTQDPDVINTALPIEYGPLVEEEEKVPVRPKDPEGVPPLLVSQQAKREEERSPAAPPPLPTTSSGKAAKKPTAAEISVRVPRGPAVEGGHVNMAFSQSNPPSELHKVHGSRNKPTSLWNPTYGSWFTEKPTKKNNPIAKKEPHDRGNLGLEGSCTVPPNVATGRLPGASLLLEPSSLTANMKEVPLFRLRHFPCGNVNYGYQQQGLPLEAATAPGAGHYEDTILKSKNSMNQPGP

| SMILES | IC50 [nM] |
| --- | --- |
| CC(C)(O)C1CCN(CCOc2cc3c(cn2)[nH]/c(=N\C(=O)c2cccc(F)c2)n3[C@H]2CC[C@@H](C(=O)N3C[C@@H]4C[C@H]3CN4)CC2)CC1 (relative stereo) [Example 84, (E)-N-(1-(cis-4-(cis-2,5-Diazabicyclo[2.2.1]heptane-2-carbonyl)cyclohexyl)-6-(2-(4-(2-hydroxypropan-2-yl)piperidin-1-yl)ethoxy)-1H-imidazo[4,5-c]pyridin-2(3H)-ylidene)-3-fluorobenzamide] | 100 to 1000 |
| COC(=O)[C@H]1CC[C@@H](n2/c(=N/C(=O)c3ccccc3)[nH]c3cnccc32)CC1 [Example 1, cis-Methyl 4-((E)-2-(benzoylimino)-2,3-dihydro-1H-imidazo[4,5-c]pyridin-1-yl)cyclohexanecarboxylate] | 100 to 1000 |
| COC(=O)[C@H]1CC[C@@H](n2/c(=N/C(=O)c3ccc(F)cc3)[nH]c3ccc(CO)cc32)CC1 [Example 2] | < 50 |
| COC(=O)[C@H]1CC[C@@H](n2c(NC(=O)c3ccc(F)cc3)nc3ccc(CN4CCCCC4)cc32)CC1 [Example 3, cis-Methyl 4-(2-(4-fluorobenzoylimino)-6-(piperidin-1-ylmethyl)-2,3-dihydro-1H-benzo[d]imidazol-1-yl)cyclohexanecarboxylate] | < 50 |
| COC(=O)[C@H]1CC[C@@H](n2c(NC(=O)c3ccccc3)nc3ccc(CO)cc32)CC1 [Example 4, cis-Methyl 4-(2-benzamido-6-(hydroxymethyl)-1H-benzo[d]imidazol-1-yl)cyclohexanecarboxylate] | < 50 |
| COC(=O)[C@H]1CC[C@@H](n2c(NC(=O)c3ccccc3)nc3ccc(CN4CCOCC4)cc32)CC1 [Example 5, cis-Methyl 4-(2-benzamido-6-(morpholinomethyl)-1H-benzo[d]imidazol-1-yl)cyclohexanecarboxylate] | < 50 |
| CCOC(=O)[C@H]1CC[C@@H](n2c(NC(=O)c3ccc(F)cc3)nc3ccc(CO)cc32)CC1 [Example 6, cis-Ethyl 4-(2-(4-fluorobenzamido)-6-(hydroxymethyl)-1H-benzo[D]imidazol-1-yl)cyclohexanecarboxylate] | < 50 |
| CCOC(=O)[C@H]1CC[C@@H](n2/c(=N/C(=O)c3ccccc3)[nH]c3ccc(CO)cc32)CC1 [Example 7, cis-Ethyl 4-((E)-2-(benzoylimino)-6-(hydroxymethyl)-2,3-dihydro-1H-benzo[d]imidazol-1-yl)cyclohexanecarboxylate] | < 50 |
| CCOC(=O)[C@H]1CC[C@@H](n2/c(=N/C(=O)c3ccc(F)cc3)[nH]c3ccc(CN4CCCCC4)cc32)CC1 [Example 8, cis-Ethyl 4-((E)-2-(4-fluorobenzoylimino)-6-(piperidin-1-ylmethyl)-2,3-dihydro-1H-benzo[d]imidazol-1-yl)cyclohexanecarboxylate] | < 50 |
| O=C(Nc1nc2ccc(CN3CCCCC3)cc2n1[C@H]1CC[C@@H](C(=O)O)CC1)c1ccc(F)cc1 [Example 10, cis-4-(2-(4-Fluorobenzamido)-6-(piperidin-1-ylmethyl)-1H-benzo[d]imidazol-1-yl)cyclohexanecarboxylic acid hydrochloride] | 100 to 1000 |
| CCNC(=O)[C@H]1CC[C@@H](n2/c(=N/C(=O)c3ccc(F)cc3)[nH]c3ccc(CN4CCCCC4)cc32)CC1 [Example 11, (E)-N-(1-(cis-4-(Ethylcarbamoyl)cyclohexyl)-6-(piperidin-1-ylmethyl)-1H-benzo[d]imidazol-2(3H)-ylidene)-4-fluorobenzamide] | < 50 |
| COC(=O)[C@H]1CC[C@@H](n2/c(=N/C(=O)c3cccc(C(F)(F)F)c3)[nH]c3ccc(CO)cc32)CC1 [Example 12, cis-Methyl 4-((E)-6-(hydroxymethyl)-2-(3-(trifluoromethyl)benzoylimino)-2,3-dihydro-1H-benzo[d]imidazol-1-yl)cyclohexanecarboxyl] | 100 to 1000 |
| O=C(Nc1nc2ccc(CO)cc2n1C12CC3CC(CC(C3)C1)C2)c1ccccc1 [Example 13, N-(1-adamantyl-6-(hydroxymethyl)-1H-benzo[d]imidazol-2-yl)benzamide] | 100 to 1000 |
| COC(=O)[C@H]1CC[C@@H](n2c(NC(=O)c3cccc(C(F)(F)F)c3)nc3ccc(CN4CCCCC4)cc32)CC1 [Example 14, cis-Methyl 4-(6-(piperidin-1-ylmethyl)-2-(3-(trifluoromethyl)benzamido)-1H-benzo[d]imidazol-1-yl)cyclohexanecarboxylate] | < 50 |
| CNC(=O)[C@H]1CC[C@@H](n2/c(=N/C(=O)c3ccc(F)cc3)[nH]c3ccc(CN4CCCCC4)cc32)CC1 [Example 15, (E)-N-(1-(cis-4-(Methylcarbamoyl)cyclohexyl)-6-(piperidin-1-ylmethyl)-1H-benzo[d]imidazol-2(3H)-ylidene)-4-fluorobenzamide] | < 50 |
| O=C(/N=c1\[nH]c2ccc(CN3CCCCC3)cc2n1C12CC3CC(CC(C3)C1)C2)c1ccccc1 [Example 16] | 50 to 100 |
| C=CCNS(=O)(=O)c1cccc(C(=O)/N=c2\[nH]c3ccc(CO)cc3n2C23CC4CC(CC(C4)C2)C3)c1 [Example 17, (E)-3-(N-Allylsulfamoyl)-N-(1-adamantyl-6-(hydroxymethyl)-1H-benzo[d]imidazol-2(3H)-ylidene)benzamide] | < 50 |
| C=CCNS(=O)(=O)c1cccc(C(=O)Nc2nc3ccc(CN4CCCCC4)cc3n2C23CC4CC(CC(C4)C2)C3)c1 [Example 18, 3-(N-Allylsulfamoyl)-N-(1-adamantyl-6-(piperidin-1-ylmethyl)-1H-benzo[d]imidazol-2-yl)benzamide] | < 50 |
| COC(=O)[C@H]1CC[C@@H](n2c(NC(=O)c3ccccc3)nc3ccc(CN4C(C)(C)CCCC4(C)C)cc32)CC1 [Example 19, cis-Methyl 4-(2-benzamido-6-((2,2,6,6-tetramethylpiperidin-1-yl)methyl)-1H-benzo[d]imidazol-1-yl)cyclohexanecarboxylate] | < 50 |
| COC(=O)[C@H]1CC[C@@H](n2/c(=N/C(=O)c3ccccc3)[nH]c3cnc(OCCN4CCCCC4)cc32)CC1 [Example 20, cis-Methyl 4-((E)-2-(benzoylimino)-6-(2-(piperidin-1-yl)ethoxy)-2,3-dihydro-1H-imidazo[4,5-c]pyridin-1-yl)cyclohexanecarboxylate] | < 50 |
| O=C(/N=c1\[nH]c2cnc(OCCN3CCCCC3)cc2n1[C@H]1CC[C@@H](C(=O)O)CC1)c1ccccc1 [Example 25, cis-4-((E)-2-(Benzoylimino)-6-(2-(piperidin-1-yl)ethoxy)-2,3-dihydro-1H-imidazo[4,5-c]pyridin-1-yl)cyclohexanecarboxylic acid] | 1000 to 5000 |
| CCNC(=O)[C@H]1CC[C@@H](n2/c(=N/C(=O)c3ccccc3)[nH]c3cnc(OCCN4CCCCC4)cc32)CC1 [Example 26] | < 50 |
| C=CCNS(=O)(=O)c1cc(C(=O)Nc2nc3ccc(CO)cc3n2[C@H]2CC[C@@H](C(=O)OC)CC2)ccc1F [Example 27, cis-Methyl 4-(2-(3-(N-allylsulfamoyl)-4-fluorobenzamido)-6-(hydroxymethyl)-1H-benzo[d]imidazol-1-yl)cyclohexanecarboxylate] | 100 to 1000 |
| COCCCNS(=O)(=O)c1cc(C(=O)Nc2nc3ccc(CO)cc3n2[C@H]2CC[C@@H](C(=O)OC)CC2)ccc1F [Example 28, cis-Methyl 4-(2-(4-fluoro-3-(N-(3-methoxypropyl)sulfamoyl)benzamido)-6-(hydroxymethyl)-1H-benzo[d]imidazol-1-yl)cyclohexanecarboxylate] | 100 to 1000 |
| CC(C)(C)NC(=O)[C@H]1CC[C@@H](n2c(NC(=O)c3ccccc3)nc3ccc(CN4CCCCC4)cc32)CC1 [Example 29, N-(1-(cis-4-(tert-Butylcarbamoyl)cyclohexyl)-6-(piperidin-1-ylmethyl)-1H-benzo[d]imidazol-2-yl)benzamide] | < 50 |
| O=C(/N=c1\[nH]c2ccc(CN3CCCCC3)cc2n1[C@H]1CC[C@@H](C(=O)NC2CC2)CC1)c1ccc(F)cc1 [Example 31, (E)-N-(1-(cis-4-(Cyclopropylcarbamoyl)cyclohexyl)-6-(piperidin-1-ylmethyl)-1H-benzo[d]imidazol-2(3H)-ylidene)-4-fluorobenzamide] | < 50 |
| O=C(/N=c1\[nH]c2ccc(CN3CCCCC3)cc2n1[C@H]1CC[C@@H](C(=O)NCC2CC2)CC1)c1ccc(F)cc1 [Example 32, (E)-N-(1-(cis-4-(Cyclopropylmethylcarbamoyl)cyclohexyl)-6-(piperidin-1-ylmethyl)-1H-benzo[d]imidazol-2(3H)-ylidene)-4-fluorobenzamide] | < 50 |
| C=CCNS(=O)(=O)c1cc(C(=O)Nc2nc3ccc(CN4CCCCC4)cc3n2[C@H]2CC[C@@H](C(=O)OC)CC2)ccc1F [Example 33, cis-Methyl 4-(2-(3-(N-allylsulfamoyl)-4-fluorobenzamido)-6-(piperidin-1-ylmethyl)-1H-benzo[d]imidazol-1-yl)cyclohexanecarboxylate] | < 50 |
| C=CCNS(=O)(=O)c1cc(C(=O)Nc2nc3ccc(CN4CCCCC4)cc3n2[C@H]2CC[C@@H](C(=O)O)CC2)ccc1F [Example 34, cis-4-(2-(3-(N-Allylsulfamoyl)-4-fluorobenzamido)-6-(piperidin-1-ylmethyl)-1H-benzo[d]imidazol-1-yl)cyclohexanecarboxylic acid] | 100 to 1000 |
| CC(C)CNC(=O)[C@H]1CC[C@@H](n2/c(=N/C(=O)c3ccc(F)cc3)[nH]c3ccc(CN4CCCCC4)cc32)CC1 [Example 35, (E)-4-Fluoro-N-(1-(cis-4-(isobutylcarbamoyl)cyclohexyl)-6-(piperidin-1-ylmethyl)-1H-benzo[d]imidazol-2(3H)-ylidene)benzamide] | < 50 |
